Laboratory results from patent US10070646B2, “Tetrazolinone compound and application thereof” (SUMITOMO CHEMICAL COMPANY, LIMITED, priority 2014, dated 2018).

Tests used:
Type in all cases: in vivo
[1] = tested on: cucumber anthracnose fungus (Colletotrichum lagenarium); assay: Test Example 7: cucumber anthracnose preventive foliar spray test; conditions: 50 ppm sprayed on cucumber (SAGAMI HANJIRO); spores inoculated after 1 day; one day high humidity then 6 days in greenhouse
From the text: (§1) Each of plastic pots was filled with soil and cucumber (cultivar: SAGAMI HANJIRO) was sowed and grown in a greenhouse for 19 days. Then, each water dilution prepared by adjusting so as to contain a predetermined concentration (50 ppm) of the present compound 1 was sprayed over stems and leaves of the cucumber so that it sufficiently adhered to the surface of the leaves of the cucumber. After spraying, the plant was air-dried and then, after 1 day, an aqueous suspension containing spores of cucumber anthracnose fungus (Colletotrichum lagenarium) was sprayed to inoculate the spores. After the inoculation, the plant was placed at 23° C. for one day under high humidity condition, and then cultivated in a greenhouse at 24° C. in the daytime and 20° C. at night for 6 days, and then the area of lesion was investigated. As a result, the area of lesion on the plant treated with the present compound was 30% or less of that on an untreated plant.

[2] = tested on: cucumber downy mildew fungus (Pseudoperonospora cubensis); assay: Test Example 8: cucumber downy mildew preventive foliar spray test; conditions: 200 ppm sprayed on cucumber (SAGAMI HANJIRO); zoospores inoculated after 1 day; one day high humidity then 6 days in greenhouse
From the text: as §1, with “(200” for “(50”, “zoospores” for “spores”, “downy mildew” for “anthracnose”, “(Pseudoperonospora cubensis)” for “(Colletotrichum lagenarium)”, “zoospores.” for “spores.”, “placed stand” for “placed”

[3] = tested on: kidney bean stem rot fungus (Sclerotinia sclerotiorum); assay: Test Example 2: kidney bean stem rot foliar spray test; conditions: 500 ppm sprayed on kidney bean (NAGAUZURA SAITOU); hyphae-containing PDA medium placed on leaves after air-drying; assessed four days after inoculation
From the text: Each of plastic pots was filled with soil and kidney bean (cultivar: NAGAUZURA SAITOU) was sowed and grown in a greenhouse for 8 days. Then, each water dilution prepared by adjusting so as to contain a predetermined concentration (500 ppm) of the present compound 1 was sprayed over stems and leaves of the kidney bean so that it sufficiently adhered to the surface of the leaves of the kidney bean. After spraying, the plant was air-dried and a PDA medium containing hyphae of the kidney bean stem rot fungus (Sclerotinia sclerotiorum) was placed on the leaves of the kidney bean. After the inoculation, all kidney beans were placed under high humidity condition only at night. Four days after the inoculation, the area of lesion was investigated. As a result, the area of lesion on the plant treated with the present compound was 30% or less of that on an untreated plant.

[4] = tested on: wheat leaf blotch fungus (Septoria tritici); assay: Test Example 3: wheat leaf blotch preventive foliar spray test; conditions: 500 ppm sprayed on wheat (APOGEE); spores inoculated after 4 days; 3 days at 18° C. high humidity then 14 to 18 days under illumination
From the text: Each of plastic pots was filled with soil and wheat (cultivar: APOGEE) was sowed and grown in a greenhouse for 10 days. Then, each water dilution prepared by adjusting so as to contain a predetermined concentration (500 ppm) of the present compound 1 was sprayed over stems and leaves of the wheat so that it sufficiently adhered to the surface of the leaves of the wheat. After spraying, the plant was air-dried. After 4 days, an aqueous suspension containing spores of wheat leaf blotch fungus (Septoria tritici) was sprayed over the wheat to inoculate the spores. After completion of the inoculation, the plant was placed at 18° C. under high humidity condition for 3 days and then placed under illumination for 14 to 18 days, and then the area of lesion was investigated. As a result, the area of lesion on the plant treated with the present compound was 30% or less of that on an untreated plant.

[5] = tested on: barley scald fungus (Rhynchosporium secalis); assay: Test Example 6: barley scald preventive foliar spray test; conditions: 200 ppm sprayed on barley (MIKAMO GOLDEN); spores inoculated after 2 days; 3 days high humidity then 7 days in greenhouse
From the text: (§2) Each of plastic pots was filled with soil and barley (cultivar: MIKAMO GOLDEN) was sowed and grown in a greenhouse for 7 days. Then, each water dilution prepared by adjusting so as to contain a predetermined concentration (200 ppm) of the present compound 1 was sprayed over stems and leaves of the barley so that it sufficiently adhered to the surface of the leaves of the barley. After spraying, the plant was air-dried. After 2 days, an aqueous suspension containing spores of barley scald fungus (Rhynchosporium secalis) was sprayed to inoculate the spores. After completion of the inoculation, the plant was placed for 3 days in a greenhouse at 23° C. in the daytime and 20° C. at night under high humidity condition and cultivated in a greenhouse for 7 days, and then the area of lesion was investigated. As a result, the area of lesion on the plant treated with of the present compound was 30% or less of that on an untreated plant.

[6] = tested on: barley net blotch fungus (Pyrenophora teres); assay: Test Example 1: barley net blotch preventive foliar spray test; conditions: 500 ppm sprayed on barley (MIKAMO GOLDEN) stems and leaves; spores inoculated after 2 days; 3 days high humidity then 7 days in greenhouse
From the text: as §2, with “(500” for “(200”, “net blotch” for “scald”, “(Pyrenophora teres)” for “(Rhynchosporium secalis)”

[7] = tested on: cucumber powdery mildew fungus (Sphaerotheca fuliginea, a QoI-resistant strain); assay: Test Example 4: cucumber powdery mildew (QoI-resistant strain) foliar spray test; conditions: 500 ppm sprayed on cucumber (SAGAMI HANJIRO), cytochrome b position 143 glycine to alanine, assessed after 8 days
From the text: Each of plastic pots was filled with soil and cucumber (cultivar: SAGAMI HANJIRO) was sowed and grown in a greenhouse for 12 days. Then, each water dilution prepared by adjusting so as to contain a predetermined concentration (500 ppm) of the present compound 1 was sprayed over stems and leaves of the cucumber so that it sufficiently adhered to the surface of the leaves of the cucumber. After spraying, the plant was air-dried and then inoculated by sprinkling with spores of cucumber powdery mildew fungus (Sphaerotheca fuliginea, a QoI-resistant strain in which, among the genes encoding cytochrome b, the amino acid residue at position 143 of cytochrome b is mutated from glycine to alanine). After the inoculation, the plant was cultivated in a greenhouse at 24° C. in the daytime and 20° C. at night for 8 days, and then the area of lesion was investigated. As a result, the area of lesion on the plant treated with the present compound was 30% or less of that on an untreated plant.

[8] = tested on: wheat rust fungus (Puccinia recondita); assay: Test Example 5: wheat rust preventive foliar spray test; conditions: 200 ppm sprayed on wheat (SHIROGANE); spores inoculated after 5 days; one day dark high humidity then 8 days under illumination
Procedure: Each of plastic pots was filled with soil and wheat (cultivar: SHIROGANE) was sowed and grown in a greenhouse for 9 days. Then, each water dilution prepared by adjusting so as to contain a predetermined concentration (200 ppm) of the present compound 1 was sprayed over stems and leaves of the wheat so that it sufficiently adhered to the surface of the leaves of the wheat. After spraying, the plant was air-dried and cultivated at 20° C. for 5 days under illumination, and then inoculated by sprinkling with spores of wheat rust fungus (Puccinia recondita). After the inoculation, the plant was placed at 23° C. for one day under dark and high humidity condition, and cultivated under illumination at 20° C. for 8 days, and then the area of lesion was investigated. As a result, the area of lesion on the plant treated with the present compound was 30% or less of that on an untreated plant.

Measured: area of lesion on the treated plant relative to that on an untreated plant

Cc1cccc(-n2nnn(C)c2=O)c1CSc1ccn(-c2ccc(Cl)cc2)n1 [present compound 1, 1-(2-{[1-(4-chlorophenyl)-1H-pyrazol-3-yl]thiomethyl}-3-methy1phenyl)-4-methyl-1,4-dihydrotetrazol-5-one]
≤ 30%: all assays above
